{"source": "patent US6610729B1", "about": "“Hydroxamic acid derivatives and medicinal utilization thereof” (Mitsubishi Pharma Corporation, priority 1998, dated 2003)", "key": {"[1]": {"system": "release of TNF α from THP-1 cells", "experiment": "Inhibitory activity of TNF α release from THP-1 cells (LPS, ELISA)", "format": "cell-based", "conditions": "Homo sapiens, 3 hr, 37° C., TNF α by ELISA", "procedure": "The inhibitory effect of each compound (compounds of Examples 1, 2, 3, 6, 35, 39 and 44) on the release of TNF α from THP-1 cells which are monocyte cultured cells [see Nature 370, 218-220 (1994)] was investigated.\nThe THP-1 cells were suspended to a concentration of 1×10 ^6 cells/ml in RPMI1640 medium supplemented with 10% fetal calf serum (FCS) and dispensed by 100 μl. A 2 μg/ml LPS was prepared with RPMI1640 medium supplemented with 10% FCS. Each compound (dissolved in dimethyl sulfoxide) was diluted 500-fold with the LPS solution.\nThe diluted solutions of these compounds were added to the dispensed cell suspensions by 100 μl and allowed for 3 hr to react under the conditions of 37° C., 5% CO2. After the completion of the reaction, the reaction mixture was centrifuged and the culture supernatant was collected. The TNF α amount was quantitatively measured by ELISA (enzyme-linked immunosorbent assay). The TNF α release inhibitory effect by each compound was calculated from the proportion of released TNF α amount of the compound addition group relative to that of the compound non-addition group."}, "[2]": {"system": "release of TNF α from LPS treated human whole blood", "experiment": "Inhibitory activity of TNF α release from LPS treated human whole blood (ELISA)", "format": "cell-based", "conditions": "LPS treated human whole blood diluted 4-fold, 24 hr, 37° C., TNF α by ELISA", "procedure": "The inhibitory effect of each compound (compounds of Examples 2, 6, 7, 10, 11, 37, 147, 231 and 245) on the release of TNF α from LPS treated human whole blood [see: Lymphokine Res 8, 141-146 (1989)] was investigated.\nHuman whole blood was diluted 4-fold with RPMI1640 medium supplemented with 10% FCS. The diluted blood was dispensed to a 96 multi-well plate by 100 μl and equilibrated under the conditions of 37° C., 5% CO2. LPS (2 μg/ml) was prepared with RPMI1640 medium supplemented with 10% FCS and a culture broth prepared by dissolving each compound (dissolved in dimethyl sulfoxide) in the LPS solution was added by 100 μl/well (final concentrated of dimethyl sulfoxide 0.1%), which was followed by incubation for 24 hr (37° C., 5% CO2). After the incubation, the reaction mixture was centrifuged (1,500 rpm, 5 min). The culture supernatant (40 μl/well) was collected, and TNF α amount in the supernatant was quantitatively measured by ELISA. The TNF α release inhibitory effect by each compound was calculated from the proportion of release TNF α amount of the compound addition group relitive to that of the compound non-addition group."}, "[3]": {"experiment": "Solubility in saline (0.9% aqueous sodium chloride solution) at 25° C.", "format": "physicochemical", "conditions": "saline or isotonic", "procedure": "The solubility of the Example compounds of the present invention in saline (0.9% aqueous sodium chloride solution) at 25° C. was measured."}}}
{"compound": "CC(C)C[C@@H](C(=O)N[C@@H](Cc1ccccc1)C(=O)c1ccc(OCCN(C)C)cc1)C(CN1C(=O)c2ccccc2C1=O)C(=O)NO.Cl", "note": "(single isomer, unassigned) [Example 2, 3(R)-[1(S)-[4-(2-Dimethylaminoethoxy)benzoyl]-2-phenyl]ethylcarbamoyl-5-methyl-2(R or S)-phthalimidomethylhexanohydroxamic Acid Hydrochloride]", "values": [{"measurement": "IC50", "setting": "[1]", "result": 200, "unit": "nM"}, {"measurement": "IC50", "setting": "[2]", "result": 650, "unit": "nM"}, {"measurement": "solubility", "setting": "[3]", "result": "> 5000", "unit": "µg/mL"}]}
